Experimental data reported in ChEMBL document CHEMBL1144070, “Microbial transformation of sampangine” (1999).
Values after ≈ are worked out from the molar mass of the structure shown. Active and inactive are the calls of the source. The rule behind the calls is not given here.

Columns and labels:
Cryptococcus neoformans [1] = assay: Antifungal activity against Cryptococcus neoformans ATCC 52657 after 48 hrs by agar well diffusion method; format: functional; settings: ATCC 52657, 48 h
Candida albicans = assay: Antifungal activity against Candida albicans NIH B311 after 24 hrs by agar well diffusion method; format: functional
Cryptococcus neoformans [2] = assay: Antifungal activity against Cryptococcus neoformans infected in Swiss ICR mouse assessed as lethality at 50 mg/kg, ip administered 24 hrs post infection for 12 days; format: functional, organism-based; parameters: dose 50 mg/kg

| MIC (Cryptococcus neoformans [1]) [µg/mL] | MIC (Candida albicans) [µg/mL] | Compound | Activity (Candida albicans) | Activity (Cryptococcus neoformans [2]) |
| --- | --- | --- | --- | --- |
| 0.2 (≈ 0.487 µM) | – | CO[C@H]1[C@H](O)[C@@H](O)[C@H](Oc2c3c4c(ccnc4c4ccccc24)C=CN3)O[C@@H]1CO | inactive | – |
| 0.78 (≈ 1.97 µM) | – | OC[C@H]1O[C@@H](Oc2c3c4c(ccnc4c4ccccc24)C=CN3)[C@H](O)[C@@H](O)[C@@H]1O | inactive | inactive |
| 0.2 (≈ 0.861 µM) | 3.12 (≈ 13.4 µM) | O=C1c2ccccc2-c2nccc3ccnc1c23 [SAMPANGINE] | – | – |
